“Also recorded” adds a separate entry of the source.
Experiments:
Type in all cases: cell-based
MCF-10A = assay: MTT cell viability, non-tumor cell line MCF-10A; conditions: Homo sapiens, MCF-10A, 48 h, 1.25–160 μM, read-out: IC50 MCF-10A
Description: (§1) Four different breast cells lines were used in this study: MCF-10A (non-tumorigenic), MCF7 (ER+ BC), MDA-MB453 (HER2+ BC) and MDA-MB231 (TNBC). All lineages were obtained from the American Type Culture Collection (ATCC; Manassas, VA, USA) and maintained at a temperature of 37 °C according to the supplier’s recommendations. Only MDA-MB231 cells were not kept in an atmosphere of 5% CO2. MCF-10A was grown in Dulbecco’s Modified Eagle’s Medium (DMEM F12, Gibco, ThermoFisher Scientific, Waltham, MA, USA) supplemented with 20 ng/mL epidermal growth factor (Gibco, ThermoFisher Scientific, Waltham, MA, USA), 0.5 μg/mL hydrocortisone (Sigma-Aldrich, Sigma-Aldrich, St. Louis, MO, USA) and 10 μg/mL insulin (Gibco, ThermoFisher Scientific, Waltham, MA, USA). MCF7 was cultivated in Roswell Park Memorial Institute Medium (RPMI-1640, Gibco, ThermoFisher Scientific, Waltham, MA, USA), MDA-MB453 in IMDM and MDA-MB231 in Leibovitz’s medium (L-15, Gibco, ThermoFisher Scientific, Waltham, MA, USA). All media were supplemented with 10% fetal bovine serum (FBS, Gibco, ThermoFisher Scientific, Waltham, MA, USA) and 50 µg/mL of gentamicin (Cultilab, Campinas, SP, Brazil). The cells were confirmed to be free of mycoplasma and passaged using a 0.25% trypsin-EDTA solution when confluency reached 80–90%.
(§2) Cell viability was determined by spectrophotometric quantification of MTT (3-[4,5-dimethyl-thiazol-2-yl]-2,5-diphenyltetrazolium bromide—Invitrogen. Waltham, MA, USA) reduction to formazan crystals. Cells were seeded at the density of 1 × 10^4 cells/well (MCF-10A, MDA-MB453), 1.5 × 10^4 cells/well (MDA-MB231) and 3 × 10^3 cells/well (MCF7) in 96-well culture dishes and incubated with different concentrations of the compounds (1.25, 2.5, 5, 10, 20, 40, 80 and 160 µM) for 48 h. The medium was than replaced by MTT solution (0.5 mg/mL) and plates were kept at 37 °C for 4 h. After the aspiration of the media, the formazan crystals were diluted with 100 μL of dimethyl-sulfoxide (DMSO)/well and the absorbance at 570 nm was measured using a spectrophotometer (Thermo Plate TP-Reader, Waltham, MA, USA). Cytotoxicity was calculated using the following formula: Cytotoxicity (%) = [absorbance of cells treated with the compounds/absorbance of cells treated with DMSO) × 100]. The IC50 was determined for each compound and was defined as the concentration required to inhibit 50% of cell growth, compared to the control sample (cells treated with DMSO 0.05%).
(§3) Data were presented as the mean ± standard deviation (SD) and analyzed using GraphPad Prism 9.0 software (GraphPad Software Inc., La Jolla, CA, USA). All data were assayed in triplicate. Statistical analysis was performed using one-way ANOVA, Tukey´s HSD post hoc test and Student’s t-test. The IC50 was calculated using non-linear regression and the selectivity index (SI) was calculated by the ratio between the IC50 values corresponding to the non-tumor cell lineage (MCF-10A) and the IC50 values corresponding to the BC cell lines. Statistical significance was accepted at p values < 0.05.

MCF7 [1] = assay: MTT cell viability, MCF7; conditions: Homo sapiens, MCF7; 48 h, MTT, 1.25–160 μM; read-out: IC50 MCF7
Description: as §1, §2, §3

MDA-MB-231 = assay: MTT cell viability, MDA-MB-231
Description: as §1, §2, §3

MDA-MB-453 = assay: MTT cell viability, MDA-MB-453
Description: as §1, §2, §3

[2] = tested on: tumor cells MCF7, MDA-MB-453 and MDA-MB-231; assay: MTT cell viability, tumor cells (stated collectively); conditions: 48 h, MTT; tumor cells stated collectively
Description: as §1, §2, §3

MCF7 [3] = assay: Clonogenic (colony formation) assay; conditions: MCF7, 9.00 µM (highest concentration), 48 h
Description: MCF7 cells were seeded at a density of 500 cells per well in 6-well culture. […] The medium was removed and, after 12 days, cells were washed 3 times with 1 × Phosphate-buffered saline (PBS), fixed with formaldehyde (4% v/v) and stained with crystal violet solution (0.5% v/v). Plates were scanned using L-Pix (Loccus Biotecnologia, Cotia, SP, Brazil) to obtain the images, incubated with 300 µL of acetic acid 33% v/v, and 100 µL of this solution was transferred to 96-well plates to evaluate the absorbance at 570 nm in a microplate reader (Thermo Plate TP-Reader, ThermoFisher). The number of colonies per well was calculated in relation to the untreated cells (considered as 100% of colony formation).

ENTPD1 = assay: qPCR, ENTPD1 expression in MCF7; conditions: vs untreated cells
Description: (§4) Total RNA was extracted using Trizol reagent (Invitrogen), according to the manufacturer’s protocol. The quality of extracted RNA was verified by the spectrophotometric readings at 260 and 280 nm (Nanodrop 1000-ThermoFisher), and the first strand of cDNA was synthesized from 1 µg of total RNA via reverse transcription using GoScript™ Reverse Transcription Mix (Promega, Madison, WI, EUA). qPCR analysis was performed using 5.0 μL of Power SYBR Green PCR Master Mix (Applied Biosystems, Carlsbad, CA, USA) and run on a StepOnePlus Systems (Applied Biosystems, Carlsbad, CA, USA) device with the following cycling parameters: 40 cycles of 95 °C for 10 s and 60 °C for 30 s. The comparative Cq was used to find the relative expression of CDH1 (E-caderina), ENTPD1 (ectonucleoside triphosphate diphosphohydrolase 1), ENTPD2 (ectonucleoside triphosphate diphosphohydrolase 2), ENTPD3 (ectonucleoside triphosphate diphosphohydrolase 3), ENTPD5 ([…]) and KRT10 (keratin 10) genes, after relative standard curve optimization. β-2-microglobulin (β2M) was used as a reference gene. The primer sequences are described in Table 3.

ENTPD2 = assay: qPCR, ENTPD2 expression in MCF7; conditions: vs untreated cells
Description: as §4

**Q.** Which results are given for `O=C(c1ccc(-n2cnnn2)cc1)N1CCN(S(=O)(=O)c2ccc(Cl)cc2)CC1` [Compound 3, (4-(1H-tetrazol-1-yl)phenyl)(4-((4-chlorophenyl)sulfonyl)piperazin-1-yl)methanone]?
**A.** IC50 (MCF-10A): > 160 µM; IC50 (MCF7 [1]): 4.48 µM; IC50 (MDA-MB-231; Homo sapiens, MDA-MB-231, 48 h, MTT, 1.25–160 μM, read-out: IC50 MDA-MB-231): 83 µM; SI MDA-MB-231 (MDA-MB-231; IC50 MCF10A / IC50 MDA-MB-231): >1.93; IC50 (MDA-MB-453; Homo sapiens, MDA-MB-453, 48 h, MTT, 1.25–160 μM, read-out: IC50 MDA-MB-453): 80 µM; SI MDA-MB-453 (MDA-MB-453; IC50 MCF10A / IC50 MDA-MB-453): >2.00; IC50 [2]: < 50 µM; Colony formation (MCF7 [3]): significantly reduced colony formation; also recorded: Colony formation was inhibited; Fold Change ENTPD1 mRNA (ENTPD1; MCF7, 1.125 µM): 1.102; Fold Change ENTPD1 mRNA (ENTPD1; MCF7, 2.25 µM): 1.331; Fold Change ENTPD1 mRNA (ENTPD1; MCF7, 4.5 µM): 1.006; Fold Change ENTPD2 mRNA (ENTPD2; MCF7, 1.125 µM): 1.374; Fold Change ENTPD2 mRNA (ENTPD2; MCF7, 2.25 µM): 1.417; Fold Change ENTPD2 mRNA (ENTPD2; MCF7, 4.5 µM): 1.109

Source: article PMC11433764, “A Novel Compound from the Phenylsulfonylpiperazine Class: Evaluation of In Vitro Activity on Luminal Breast Cancer Cells” (Molecules, 2024)
